Results: patent US20100075854A1, “HERBICIDE COMBINATION COMPRISING DIMETHOSXYTRIAZINYL-SUBSTITUTED DIFLUOROMETHANESULFONYLANILIDES” (Bayer CropScience AG, priority 2008, published 2010)
Read-outs that look alike come from different tables or passages of the source.

Key:
Assay in all cases: Post-emergence action, greenhouse pot test, visual scoring
Format in all cases: in vivo
Zea mays (ZEAMX) = conditions: ZEAMX, read-out: % activity found; for inhibition at 4 g/ha: 4 g of ai/ha; for inhibition at 12 g/ha: 12 g of ai/ha
Method: (§1) Seeds or rhizome pieces of mono- and dicotyledonous harmful and useful plants were placed in peat pots (diameter 4 cm) filled with sandy loam and then covered with soil. The pots were kept in a greenhouse under optimum conditions. In addition, harmful plants encountered in paddy rice cultivation were cultivated in pots with a water level 2 cm above the soil surface.
(§2) About three weeks after the start of the cultivation, the test plants were treated at the 2- to 3-leaf stage. The herbicides, formulated as powder or liquid concentrates, were, either alone or in the combinations according to the invention, sprayed in various dosages on to the green parts of the plants using an application rate of 600 l of water/ha (converted). For further cultivation of the plants, the pots were then again kept under optimum conditions in a greenhouse.
(§3) The visual scoring of the herbicidal effects was carried out in intervals up to 21 days after the treatment. Scoring was carried out in percent in comparison to the untreated control plants. 0%=no herbicidal activity, 100%=complete herbicidal activity=complete kill.
(§4) The percentages from the treatments with the herbicides alone (=individual application) and with the combinations according to the invention (=mixtures) were employed to calculate interactions using the method of Colby. When the observed efficacies of the mixtures exceed the formal sum of the values of the tests with individual applications, they also exceed the expected value according to Colby, which is calculated using the formula below (cf. S. R. Colby; in Weeds 15 (1967) pp. 20 to 22):
(§5) • A, B=activity of components A and B in percent at a dosage of a and b g of ai/ha (=gramm of active substance per hectare), respectively. • E=expected value in % at a dosage of a+b g of ai/ha.

[1] = tested on: Triticum aestivum (TRZAS); conditions: TRZAS, read-out: % activity found; for inhibition at 4 g/ha: 4 g of ai/ha; for inhibition at 12 g/ha: 12 g of ai/ha
Method: as §1, §2, §3, §4, §5

Avena fatua (AVEFA) = conditions: AVEFA, read-out: % activity found; for inhibition at 4 g/ha: 4 g of ai/ha; for inhibition at 12 g/ha: 12 g of ai/ha
Method: as §1, §2, §3, §4, §5

[2] = tested on: Alopecurus myosuroides (ALOMY); conditions: 504 h, ALOMY, 21 DAT, read-out: % activity found
Method: as §1, §2, §3, §4, §5

Veronica persica (VERPE) = conditions: VERPE, read-out: % activity found; for inhibition at 12 g/ha: 12 g of ai/ha
Method: as §1, §2, §3, §4, §5

Oryza sativa (ORYSA) = conditions: ORYSA, read-out: % activity found; for inhibition at 12 g/ha: 12 g of ai/ha
Method: as §1, §2, §3, §4, §5

[3] = tested on: Pharbitis purpurea (PHBPU); conditions: Ipomoea purpurea, PHBPU, read-out: % activity found; for inhibition at 4 g/ha: 4 g of ai/ha; for inhibition at 12 g/ha: 12 g of ai/ha
Method: as §1, §2, §3, §4, §5

[4] = tested on: Fallopia (ex Polygonum) convolvulus (POLCO); conditions: POLCO, read-out: % activity found; for inhibition at 4 g/ha: 4 g of ai/ha; for inhibition at 12 g/ha: 12 g of ai/ha
Method: as §1, §2, §3, §4, §5

[5] = tested on: Amaranthus retroflexus (AMARE); conditions: AMARE, read-out: % activity found; for inhibition at 12 g/ha: 12 g of ai/ha
Method: as §1, §2, §3, §4, §5

[6] = tested on: Lolium multiflorum (LOLMU); conditions: read-out: % activity found; for inhibition at 4 g/ha: 4 g of ai/ha; for inhibition at 12 g/ha: 12 g of ai/ha
Method: as §1, §2, §3, §4, §5

[7] = tested on: Abuthilon theophrasti (ABUTH); conditions: Abutilon theophrasti, ABUTH, read-out: % activity found; for inhibition at 4 g/ha: 4 g of ai/ha; for inhibition at 12 g/ha: 12 g of ai/ha
Method: as §1, §2, §3, §4, §5

[8] = tested on: Cyperus esculentus (CYPES); conditions: CYPES, 21 DAT
Method: as §1, §2, §3, §4, §5

Viola tricolor (VIOTR) = conditions: VIOTR, read-out: % activity found; for inhibition at 4 g/ha: 4 g of ai/ha; for inhibition at 12 g/ha: 12 g of ai/ha
Method: as §1, §2, §3, §4, §5

[9] = tested on: Matricaria inodora (MATIN); conditions: Tripleurospermum inodorum, MATIN, read-out: % activity found; for inhibition at 4 g/ha: 4 g of ai/ha
Method: as §1, §2, §3, §4, §5

COc1nc(OC)nc(C(=O)c2cccc(F)c2N(C)S(=O)(=O)C(F)F)n1 [A-1]
inhibition at 4 g/ha (Zea mays (ZEAMX); 240 h, 10 DAT): 0%
inhibition at 12 g/ha (Zea mays (ZEAMX); 240 h, 10 DAT): 0%
inhibition at 4 g/ha (Zea mays (ZEAMX); 504 h, 21 DAT): 0%
inhibition at 12 g/ha (Zea mays (ZEAMX); 504 h, 21 DAT): 0%
inhibition at 4 g/ha ([1]; 240 h, 10 DAT): 0%
inhibition at 12 g/ha ([1]; 240 h, 10 DAT): 0%
inhibition at 4 g/ha ([1]; 504 h, 21 DAT): 0%
inhibition at 12 g/ha ([1]; 504 h, 21 DAT): 0%
inhibition at 4 g/ha (Avena fatua (AVEFA); 240 h, 10 DAT): 40%
inhibition at 12 g/ha (Avena fatua (AVEFA); 240 h, 10 DAT): 50%
inhibition at 4 g/ha (Avena fatua (AVEFA); 504 h, 21 DAT): 10%
inhibition at 12 g/ha (Avena fatua (AVEFA); 504 h, 21 DAT): 30%
inhibition at 4 g/ha ([2]; 4 g of ai/ha): 40%
inhibition at 12 g/ha ([2]; 12 g of ai/ha): 50%
inhibition at 12 g/ha (Veronica persica (VERPE); 240 h, 10 DAT): 60%
inhibition at 4 g/ha (Veronica persica (VERPE); 504 h, 21 DAT, 4 g of ai/ha): 30%
inhibition at 12 g/ha (Veronica persica (VERPE); 504 h, 21 DAT): 40%
inhibition at 12 g/ha (Oryza sativa (ORYSA); 240 h, 10 DAT): 10%
inhibition at 4 g/ha (Oryza sativa (ORYSA); 504 h, 21 DAT, 4 g of ai/ha): 0%
inhibition at 12 g/ha (Oryza sativa (ORYSA); 504 h, 21 DAT): 10%
inhibition at 4 g/ha ([3]; 240 h, 10 DAT): 60%
inhibition at 12 g/ha ([3]; 240 h, 10 DAT): 60%
inhibition at 4 g/ha ([3]; 504 h, 21 DAT): 60%
inhibition at 12 g/ha ([3]; 504 h, 21 DAT): 65%
inhibition at 4 g/ha ([4]; 240 h, 10 DAT): 70%
inhibition at 12 g/ha ([4]; 240 h, 10 DAT): 70%
inhibition at 4 g/ha ([4]; 504 h, 21 DAT): 75%
inhibition at 12 g/ha ([4]; 504 h, 21 DAT): 70%
inhibition at 12 g/ha ([5]; 240 h, 10 DAT): 70%
inhibition at 4 g/ha ([5]; 504 h, 21 DAT, 4 g of ai/ha): 70%
inhibition at 12 g/ha ([5]; 504 h, 21 DAT): 75%
inhibition at 4 g/ha ([6]; 240 h, 10 DAT): 0%
inhibition at 12 g/ha ([6]; 240 h, 10 DAT): 10%
inhibition at 4 g/ha ([6]; 504 h, 21 DAT): 0%
inhibition at 12 g/ha ([6]; 504 h, 21 DAT): 10%
inhibition at 4 g/ha ([7]; 240 h, 10 DAT): 70%
inhibition at 12 g/ha ([7]; 240 h, 10 DAT): 70%
inhibition at 4 g/ha ([7]; 504 h, 21 DAT): 85%
inhibition at 12 g/ha ([7]; 504 h, 21 DAT): 85%
(7) % activity found ([8]; (5) dose of A-1 4, alone): 80%
(7) % activity found ([8]; (5) dose of A-1 12, alone): 80%
inhibition at 4 g/ha ([8]; Cyperus esculentus, 504 h, 4 g of ai/ha, read-out: % activity found): 80%
inhibition at 12 g/ha ([8]; Cyperus esculentus, 504 h, 12 g of ai/ha, read-out: % activity found): 80%
inhibition at 4 g/ha (Viola tricolor (VIOTR); 240 h, 10 DAT): 20%
inhibition at 12 g/ha (Viola tricolor (VIOTR); 240 h, 10 DAT): 20%
inhibition at 4 g/ha (Viola tricolor (VIOTR); 504 h, 21 DAT): 0%
inhibition at 12 g/ha (Viola tricolor (VIOTR); 504 h, 21 DAT): 10%
inhibition at 4 g/ha ([9]; 240 h, 10 DAT): 60%
inhibition at 4 g/ha ([9]; 504 h, 21 DAT): 50%
inhibition at 12 g/ha ([9]; 504 h, 21 DAT, 12 g of ai/ha): 60%
